Test results reported in patent publication US20200046617A1, “Composition For Combating The Signs Of Ageing Of The Skin And Hair And Nails” (TOMCAT INTERNATIONAL LIMITED, priority 2017, published 2020).

Assays:
Assay type in all cases: cell-based
human fibroblasts [1] = test: Mitochondrial mass of FK866-treated human fibroblasts (Nonyl Acridine Orange probe, flow cytometry); conditions: for Effect of treatment against FK866 on mitochondrial mass (in words): fibroblasts treated with FK866; for Mitochondrial mass Increase (%): vs FK866 2.5 nM non treated
Description: Human fibroblasts were cultured at 37° C. in wet atmosphere with 5% CO2, on MEM supplemented with glucose, serum and glutamine. The cells are treated with a chemical agent (FK866) in the presence or absence of the following compounds: Trans-resveratrol and Betaine. Agent FK866 reduces the cell mitochondrial mass, thereby mimicking one of the signs of ageing.
Under these conditions, the ability of the active ingredient to increase the mitochondrial mass is assessed.
After 24 h treatment, the mitochondrial mass is therefore measured using the Nonyl Acridine Orange (NAO, Invitrogen) probe which fluoresces at 533 nm. The cell viability can be measured by DAPI staining. A flow cytometry analysis is conducted with a FACS LSRII and the results analysed by FlowJo software.

Col1A1 = Col1A1 gene expression in cutaneous fibroblasts (quantitative real-time PCR); conditions: 24 h, resveratrol 4 μM, betaine 5 mM or both; for Relative expression of Col1A1 Mean value: relative to untreated (ΔΔCt); for Relative expression of Col1A1 Increase (%): vs untreated
Description: Cutaneous fibroblasts were cultured for 24 h with resveratrol, betaine or mixtures of the two compounds.
For the gene expression analysis, the total RNAs were extracted from the fibroblast cultures and the expression measured by quantitative real-time PCR. RNA extraction was carried out using an RNeasy Mini Kit (Qiagen). The total RNAs were used for the cDNA synthesis using the iScript cDNA synthesis Kit (Biorad). The PCR reactions were conducted using the mix LightCycler® 480 SYBR Green I Master (Roche). To compare the relative expressions, the Δ ΔCt method was used. The relative expression of the gene of interest is represented by the expression variation compared with the untreated samples.

human fibroblasts [2] = test: Intracellular ATP production by cultivated human fibroblasts (chemiluminescence-based assay); conditions: resveratrol 1 μM, betaine 1 mM or mixture; for ATP (μM per cell) Mean value: 120 min incubation, mean of 4 measurements; for ATP Increase (%): with respect to ATP level in untreated cells, 120 min
Description: Human fibroblasts were cultured at 37° C. in wet atmosphere with 5% CO2, on MEM supplemented with glucose, serum and glutamine. A solution containing trans-resveratrol and/or betaine is added to the culture medium:
The primary fibroblast cultures are incubated for 120 min with resveratrol at a final concentration of 1 μM, betaine at a concentration of 1 mM or a mixture of the two.
The cell viability is measured after incubation by fluorescence. The intracellular ATP concentration is measured by a chemiluminescence-based assay; the mean of 4 measurements is taken.
The intracellular ATP concentrations are expressed in μM of ATP per viable cell and percent of ATP increase is calculated with respect to the ATP level in untreated cells.

[3] = in presence of FK866 2.5 nM, 24 h, betaine 5 mM, resveratrol 25 μM or both
[4] = 24 h, betaine 5 mM, resveratrol 25 μM or both

Structure (SMILES)	Effect of treatment against FK866 on mitochondrial mass (in words) (human fibroblasts [1])	Mitochondrial mass (fluorescence units) Mean (human fibroblasts [1]; [3])	Mitochondrial mass Increase (%) (human fibroblasts [1]; [4])	Relative expression of Col1A1 Mean value (Col1A1)	Relative expression of Col1A1 Increase (%) (Col1A1)	ATP (μM per cell) Mean value (human fibroblasts [2])	ATP Increase (%) (human fibroblasts [2])	Mitochondrial mass Decrease (%) (human fibroblasts [1]; FK866 2.5 nM alone vs basal, 24 h)	Mitochondrial mass (fluorescence units) Mean (human fibroblasts [1]; FK866 2.5 nM alone, 24 h treatment)	Effect of FK866 on mitochondrial mass of fibroblasts (in words) (human fibroblasts [1]; FK866 alone)
Oc1ccc(C=Cc2cc(O)cc(O)c2)cc1 [Resveratrol, 3,5,4′-trihydroxystilbene]	protects against the effects of FK866	2285 fluorescence units	72%	1.22	22%	0.086 μM per cell	28%			
O=C(/C=C/c1cccnc1)NCCCCC1CCN(C(=O)c2ccccc2)CC1 [FK866, reference compound]								10%	1326 fluorescence units	decreases the mitochondrial mass
C[N+](C)(C)CC(=O)[O-] [Betaine, trimethylglycine]	protects against the effects of FK866	1574 fluorescence units	19%	1.28	28%	0.080 μM per cell	20%			
